Measurements reported in ChEMBL document CHEMBL5465560, “Selectivity Literature for EUbOPEN Chemogenomic Library” (2024).
Blank lines part the entries; values can stand above or below the compound they belong to.

Columns and labels:
[1] = biological target: Phosphatidylinositol 4-kinase beta (Homo sapiens, UniProt Q9UBF8); details: at 10 µM
[2] = biological target: Mitogen-activated protein kinase 11 (Homo sapiens) (UniProt Q15759); assay: Selectivity interaction (Ambit KINOMEscan and KiNATiv profiling in Jurkat cells) EUB0000090b MAPK11; type: cell-based; details: at 1 µM
[3] = biological target: Calcium/calmodulin-dependent protein kinase type II subunit delta (Homo sapiens) (UniProt Q13557); assay: Selectivity interaction (ActivX KiNativ screen (kinase selectivity in THP-1 cell lysates)) EUB0000639a CAMK2D; type: subcellular; details: lysate, at 1 µM
[4] = biological target: Citron Rho-interacting kinase (Homo sapiens) (UniProt O14578); details: at 10 µM
[5] = biological target: Mitotic checkpoint serine/threonine-protein kinase BUB1 beta (Homo sapiens) (UniProt O60566); assay: Selectivity interaction (ProQinase) EUB0000171b BUB1B
[6] = biological target: Ribosomal protein S6 kinase alpha-6 (Homo sapiens, UniProt Q9UK32); assay: Selectivity interaction (Upstate Kinase Profiler service (Millipore)) EUB0000056c RPS6KA6; details: at 1 µM
[7] = biological target: Serine/threonine-protein kinase N2 (Homo sapiens, UniProt Q16513); assay: Selectivity interaction (KinomeScan (DiscoverX)) EUB0000655a PKN2; details: at 10 µM
[8] = biological target: T1, 5-hydroxytryptamine receptor 2C (Homo sapiens) (UniProt P28335); assay: Selectivity interaction (GPCR panel (PDSP screen)) EUB0000311b HTR2C; details: at 10 µM
T1 sequence (whole entry): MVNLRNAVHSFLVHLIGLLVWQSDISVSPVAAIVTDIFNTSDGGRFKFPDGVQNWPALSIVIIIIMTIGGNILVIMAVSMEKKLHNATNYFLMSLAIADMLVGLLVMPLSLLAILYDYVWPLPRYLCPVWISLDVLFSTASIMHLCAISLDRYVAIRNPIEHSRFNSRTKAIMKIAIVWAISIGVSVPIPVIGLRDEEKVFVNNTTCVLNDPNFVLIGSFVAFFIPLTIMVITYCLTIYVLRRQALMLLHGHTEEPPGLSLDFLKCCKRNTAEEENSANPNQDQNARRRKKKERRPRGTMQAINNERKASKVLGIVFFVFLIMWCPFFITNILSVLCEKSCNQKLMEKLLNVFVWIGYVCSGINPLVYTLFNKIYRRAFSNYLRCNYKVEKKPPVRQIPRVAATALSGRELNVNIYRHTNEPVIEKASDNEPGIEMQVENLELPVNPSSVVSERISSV

[9] = biological target: Serine/threonine-protein kinase 16 (Homo sapiens, UniProt O75716); assay: Selectivity interaction (ActivX KiNativ screen (ex vivo kinase selectivity in human PBMCs)) EUB0001619a STK16; type: cell-based; details: PBMC, at 1 µM
[10] = biological target: T2, Ankyrin repeat and protein kinase domain-containing protein 1 (Homo sapiens) (UniProt Q8NFD2); assay: Selectivity interaction (KinomeScan (DiscoverX)) EUB0001619a ANKK1; details: at 1 µM
T2 sequence (whole entry): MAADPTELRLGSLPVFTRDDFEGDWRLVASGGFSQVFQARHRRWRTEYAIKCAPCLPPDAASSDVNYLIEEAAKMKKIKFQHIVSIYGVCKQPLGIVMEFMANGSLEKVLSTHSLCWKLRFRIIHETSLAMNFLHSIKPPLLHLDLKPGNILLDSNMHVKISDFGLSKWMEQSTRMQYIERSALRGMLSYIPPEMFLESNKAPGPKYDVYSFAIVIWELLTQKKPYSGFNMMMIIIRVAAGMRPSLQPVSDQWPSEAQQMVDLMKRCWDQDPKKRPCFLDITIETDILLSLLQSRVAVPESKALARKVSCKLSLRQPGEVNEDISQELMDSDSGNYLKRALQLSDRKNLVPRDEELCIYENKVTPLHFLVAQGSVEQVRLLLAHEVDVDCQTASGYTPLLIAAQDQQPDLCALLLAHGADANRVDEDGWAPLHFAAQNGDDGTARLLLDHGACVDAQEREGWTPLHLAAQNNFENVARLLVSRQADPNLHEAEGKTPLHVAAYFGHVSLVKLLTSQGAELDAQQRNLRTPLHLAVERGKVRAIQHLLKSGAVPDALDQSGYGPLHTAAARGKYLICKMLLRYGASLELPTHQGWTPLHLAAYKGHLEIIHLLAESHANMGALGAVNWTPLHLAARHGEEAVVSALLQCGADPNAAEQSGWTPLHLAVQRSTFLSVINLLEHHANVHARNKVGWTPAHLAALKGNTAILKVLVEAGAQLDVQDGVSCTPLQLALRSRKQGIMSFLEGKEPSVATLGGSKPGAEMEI

[11] = biological target: Protein kinase C theta type (Homo sapiens, UniProt Q04759); assay: Selectivity interaction (KinomeScan (DiscoverX)) EUB0000607a PRKCQ; details: at 10 µM
[12] = biological target: T3, Dual specificity mitogen-activated protein kinase kinase 4 (Homo sapiens) (UniProt P45985); assay: Selectivity interaction (KinomeScan (DiscoverX)) EUB0000607a MAP2K4; details: at 10 µM
T3 sequence (whole entry): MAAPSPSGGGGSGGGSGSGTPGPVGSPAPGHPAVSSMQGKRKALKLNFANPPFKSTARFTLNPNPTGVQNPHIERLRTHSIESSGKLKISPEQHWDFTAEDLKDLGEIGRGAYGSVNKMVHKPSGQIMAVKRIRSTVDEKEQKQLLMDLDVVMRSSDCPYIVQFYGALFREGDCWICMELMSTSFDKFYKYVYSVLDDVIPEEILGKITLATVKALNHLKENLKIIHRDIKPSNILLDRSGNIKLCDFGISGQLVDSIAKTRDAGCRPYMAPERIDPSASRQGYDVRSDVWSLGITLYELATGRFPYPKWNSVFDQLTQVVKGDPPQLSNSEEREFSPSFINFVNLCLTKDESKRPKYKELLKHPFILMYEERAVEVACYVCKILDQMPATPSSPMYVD

[13] = biological target: T4, TGF-beta receptor type-1 (Homo sapiens) (UniProt P36897); assay: Selectivity interaction (KinomeScan (DiscoverX)) EUB0000666a TGFBR1; details: at 10 µM
T4 sequence (whole entry): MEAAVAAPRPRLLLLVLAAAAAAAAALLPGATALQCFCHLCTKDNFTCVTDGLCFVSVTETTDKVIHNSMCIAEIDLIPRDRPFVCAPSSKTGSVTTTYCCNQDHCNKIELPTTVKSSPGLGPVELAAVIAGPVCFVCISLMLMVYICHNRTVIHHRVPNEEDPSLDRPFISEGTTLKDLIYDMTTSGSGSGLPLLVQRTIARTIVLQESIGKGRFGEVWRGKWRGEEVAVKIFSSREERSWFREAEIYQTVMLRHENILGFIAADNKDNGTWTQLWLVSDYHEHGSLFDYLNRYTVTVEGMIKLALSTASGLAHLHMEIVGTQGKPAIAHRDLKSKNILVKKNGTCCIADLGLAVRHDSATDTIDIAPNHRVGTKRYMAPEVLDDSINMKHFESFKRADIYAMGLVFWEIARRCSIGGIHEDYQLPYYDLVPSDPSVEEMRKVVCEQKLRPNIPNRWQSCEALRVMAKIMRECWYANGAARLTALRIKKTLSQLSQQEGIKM

Chain of Mitotic checkpoint serine/threonine-protein kinase BUB1 beta (Homo sapiens) (O60566 whole entry): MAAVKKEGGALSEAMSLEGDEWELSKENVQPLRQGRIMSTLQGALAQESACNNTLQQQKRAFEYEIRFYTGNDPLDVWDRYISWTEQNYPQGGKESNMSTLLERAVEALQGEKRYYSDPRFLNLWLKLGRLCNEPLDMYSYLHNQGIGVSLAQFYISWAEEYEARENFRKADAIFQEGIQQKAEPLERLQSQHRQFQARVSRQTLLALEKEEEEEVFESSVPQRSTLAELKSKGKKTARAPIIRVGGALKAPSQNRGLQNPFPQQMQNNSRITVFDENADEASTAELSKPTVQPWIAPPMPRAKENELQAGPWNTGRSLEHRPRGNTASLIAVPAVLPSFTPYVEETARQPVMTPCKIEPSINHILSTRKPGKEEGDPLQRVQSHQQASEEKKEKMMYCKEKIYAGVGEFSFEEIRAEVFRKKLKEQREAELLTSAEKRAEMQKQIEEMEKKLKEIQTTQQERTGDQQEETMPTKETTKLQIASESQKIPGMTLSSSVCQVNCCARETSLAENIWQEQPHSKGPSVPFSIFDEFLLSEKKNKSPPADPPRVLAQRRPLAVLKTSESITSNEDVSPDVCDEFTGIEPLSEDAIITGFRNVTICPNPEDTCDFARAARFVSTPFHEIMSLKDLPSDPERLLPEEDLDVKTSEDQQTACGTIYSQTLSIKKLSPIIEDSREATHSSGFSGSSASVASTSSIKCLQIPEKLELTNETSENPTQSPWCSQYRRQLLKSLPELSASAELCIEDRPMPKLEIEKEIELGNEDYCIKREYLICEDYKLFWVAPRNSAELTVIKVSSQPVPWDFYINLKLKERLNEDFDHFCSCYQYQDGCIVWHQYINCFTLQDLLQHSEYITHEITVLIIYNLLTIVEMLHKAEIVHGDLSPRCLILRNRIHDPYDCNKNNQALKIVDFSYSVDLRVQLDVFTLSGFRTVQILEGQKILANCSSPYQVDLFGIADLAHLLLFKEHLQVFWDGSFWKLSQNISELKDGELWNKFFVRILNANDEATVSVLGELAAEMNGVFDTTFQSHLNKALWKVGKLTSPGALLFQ
Chain of Mitogen-activated protein kinase 11 (Homo sapiens) (Q15759 whole entry): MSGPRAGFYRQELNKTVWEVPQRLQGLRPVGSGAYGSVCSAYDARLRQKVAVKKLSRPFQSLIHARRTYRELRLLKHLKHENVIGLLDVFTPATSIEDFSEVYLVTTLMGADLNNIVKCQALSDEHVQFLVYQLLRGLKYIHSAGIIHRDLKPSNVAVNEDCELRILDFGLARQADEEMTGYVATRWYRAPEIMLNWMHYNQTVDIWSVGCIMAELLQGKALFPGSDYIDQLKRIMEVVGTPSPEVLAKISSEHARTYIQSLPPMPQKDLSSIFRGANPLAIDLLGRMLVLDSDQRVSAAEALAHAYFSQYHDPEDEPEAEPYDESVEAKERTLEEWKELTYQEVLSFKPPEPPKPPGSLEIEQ
Chain of Ribosomal protein S6 kinase alpha-6 (Q9UK32 whole entry): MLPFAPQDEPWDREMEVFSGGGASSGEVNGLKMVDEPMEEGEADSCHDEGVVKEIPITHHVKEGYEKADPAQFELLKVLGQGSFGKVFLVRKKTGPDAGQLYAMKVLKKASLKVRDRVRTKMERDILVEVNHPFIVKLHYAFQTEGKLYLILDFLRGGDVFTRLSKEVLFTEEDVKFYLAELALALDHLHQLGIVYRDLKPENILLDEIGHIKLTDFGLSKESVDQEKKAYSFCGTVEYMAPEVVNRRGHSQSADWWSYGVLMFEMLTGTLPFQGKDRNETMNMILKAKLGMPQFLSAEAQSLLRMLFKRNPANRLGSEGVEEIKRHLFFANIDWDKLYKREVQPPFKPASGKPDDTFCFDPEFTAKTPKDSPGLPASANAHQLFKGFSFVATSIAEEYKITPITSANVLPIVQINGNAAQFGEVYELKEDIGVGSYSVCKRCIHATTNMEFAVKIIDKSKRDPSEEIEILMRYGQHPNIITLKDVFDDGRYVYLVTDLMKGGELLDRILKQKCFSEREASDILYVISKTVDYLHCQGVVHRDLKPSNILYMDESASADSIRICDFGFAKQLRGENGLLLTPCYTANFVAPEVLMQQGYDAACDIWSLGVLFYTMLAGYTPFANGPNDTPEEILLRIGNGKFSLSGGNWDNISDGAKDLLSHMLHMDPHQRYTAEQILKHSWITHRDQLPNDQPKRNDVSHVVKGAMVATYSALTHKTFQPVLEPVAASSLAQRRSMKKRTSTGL
Chain of Phosphatidylinositol 4-kinase beta (Q9UBF8 2-816 limits assumed): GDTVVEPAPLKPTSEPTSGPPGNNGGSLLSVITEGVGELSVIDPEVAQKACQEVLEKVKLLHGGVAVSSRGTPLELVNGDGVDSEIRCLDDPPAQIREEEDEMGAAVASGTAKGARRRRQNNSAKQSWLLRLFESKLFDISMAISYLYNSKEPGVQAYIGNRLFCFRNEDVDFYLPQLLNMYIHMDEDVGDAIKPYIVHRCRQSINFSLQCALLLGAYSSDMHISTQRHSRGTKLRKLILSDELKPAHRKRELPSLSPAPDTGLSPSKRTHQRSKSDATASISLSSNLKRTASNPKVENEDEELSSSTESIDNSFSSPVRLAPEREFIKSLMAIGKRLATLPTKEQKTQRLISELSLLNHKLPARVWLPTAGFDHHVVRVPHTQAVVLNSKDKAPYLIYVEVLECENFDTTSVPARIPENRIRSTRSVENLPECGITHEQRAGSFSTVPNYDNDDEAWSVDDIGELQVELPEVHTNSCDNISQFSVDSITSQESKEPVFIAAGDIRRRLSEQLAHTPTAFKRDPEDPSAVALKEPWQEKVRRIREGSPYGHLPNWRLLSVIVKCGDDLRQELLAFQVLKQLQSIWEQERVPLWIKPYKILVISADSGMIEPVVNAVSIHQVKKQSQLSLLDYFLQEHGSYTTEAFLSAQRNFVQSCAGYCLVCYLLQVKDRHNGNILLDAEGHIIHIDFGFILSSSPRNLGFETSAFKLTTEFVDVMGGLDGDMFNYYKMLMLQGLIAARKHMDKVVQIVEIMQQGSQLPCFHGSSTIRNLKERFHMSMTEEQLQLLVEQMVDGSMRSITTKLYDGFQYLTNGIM
Chain of Serine/threonine-protein kinase 16 (O75716 whole entry, the tested form may be a part): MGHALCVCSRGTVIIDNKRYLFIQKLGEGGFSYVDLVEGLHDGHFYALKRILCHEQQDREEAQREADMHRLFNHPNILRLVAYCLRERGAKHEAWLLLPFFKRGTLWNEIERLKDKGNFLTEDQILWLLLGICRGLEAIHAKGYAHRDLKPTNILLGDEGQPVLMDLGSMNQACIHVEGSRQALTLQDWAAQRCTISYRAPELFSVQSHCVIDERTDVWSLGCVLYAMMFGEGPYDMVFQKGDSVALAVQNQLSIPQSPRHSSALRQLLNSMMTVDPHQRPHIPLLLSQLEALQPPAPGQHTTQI
Chain of Protein kinase C theta type (Q04759 whole entry, looked up): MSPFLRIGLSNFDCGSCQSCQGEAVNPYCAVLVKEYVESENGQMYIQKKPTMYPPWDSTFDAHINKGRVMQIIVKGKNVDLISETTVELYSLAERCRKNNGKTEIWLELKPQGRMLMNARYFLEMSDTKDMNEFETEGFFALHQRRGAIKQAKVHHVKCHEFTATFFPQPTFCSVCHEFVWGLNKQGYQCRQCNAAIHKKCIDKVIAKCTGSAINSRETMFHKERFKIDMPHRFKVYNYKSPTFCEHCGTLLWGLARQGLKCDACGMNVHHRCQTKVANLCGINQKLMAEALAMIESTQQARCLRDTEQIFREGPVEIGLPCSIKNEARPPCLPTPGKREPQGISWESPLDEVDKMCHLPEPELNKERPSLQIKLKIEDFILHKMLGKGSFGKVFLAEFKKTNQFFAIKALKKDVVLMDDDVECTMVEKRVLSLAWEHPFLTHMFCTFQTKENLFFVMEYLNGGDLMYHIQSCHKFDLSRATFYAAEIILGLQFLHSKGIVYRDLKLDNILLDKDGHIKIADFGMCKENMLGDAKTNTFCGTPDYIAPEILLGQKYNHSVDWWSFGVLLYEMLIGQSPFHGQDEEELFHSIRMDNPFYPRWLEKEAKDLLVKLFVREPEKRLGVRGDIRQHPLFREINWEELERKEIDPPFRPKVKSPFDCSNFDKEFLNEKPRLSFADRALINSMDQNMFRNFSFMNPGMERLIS
Chain of Calcium/calmodulin-dependent protein kinase type II subunit delta (Homo sapiens) (Q13557 whole entry): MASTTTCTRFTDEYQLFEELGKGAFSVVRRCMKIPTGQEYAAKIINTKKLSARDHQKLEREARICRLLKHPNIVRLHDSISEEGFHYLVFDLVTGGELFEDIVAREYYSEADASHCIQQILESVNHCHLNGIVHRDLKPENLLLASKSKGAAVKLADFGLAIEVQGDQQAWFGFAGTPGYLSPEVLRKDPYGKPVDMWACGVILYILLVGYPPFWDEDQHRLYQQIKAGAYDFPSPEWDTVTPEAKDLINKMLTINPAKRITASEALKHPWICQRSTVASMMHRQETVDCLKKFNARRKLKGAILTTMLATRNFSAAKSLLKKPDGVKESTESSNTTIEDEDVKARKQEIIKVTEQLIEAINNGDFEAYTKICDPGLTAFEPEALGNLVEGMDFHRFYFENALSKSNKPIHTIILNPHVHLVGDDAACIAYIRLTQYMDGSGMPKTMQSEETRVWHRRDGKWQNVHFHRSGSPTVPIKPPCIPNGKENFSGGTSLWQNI

SMILES: Cc1cc([C@@H](C)Nc2ccccc2C(=O)O)c2nc(N3CCOCC3)cc(=O)n2c1 [AZD-6482]
% of control [1]: 100%

SMILES: CN(C)C/C=C/C(=O)Nc1ccc(C(=O)N2CCCC(Nc3ncc(Cl)c(-c4c[nH]c5ccccc45)n3)C2)cc1 (centres undefined)
% of control [2]: 97%

% of inhibition [3]: 25.1%
SMILES: CC[C@@H]1[C@H](F)C(=O)N[C@@H]1COc1nccc2cc(C(N)=O)c(OC)cc12 [ZIMLOVISERTIB]

% of control [4]: 100%
SMILES: CCN(CC)CCCCNc1ncc2cc(-c3cc(OC)cc(OC)c3)c(NC(=O)NC(C)(C)C)nc2n1

% of control ([5]; at 1 µM): 95%
% of control ([5]; at 5 µM): 80%
SMILES: C=CC(=O)Nc1cccc(C(=O)Nc2ccc(Nc3cc(-c4[nH]c(SC)nc4C)ccn3)cc2)c1

% of inhibition [6]: 38%
SMILES: Cc1ccc(-c2ccc3c(ccc4sc5c(c43)NC[C@@H](C)NC5=O)n2)cn1

SMILES: CN(C)CCOc1ccc(-c2nc(-c3ccncc3)c(-c3ccc4c(c3)CC/C4=N\O)[nH]2)cc1
% of control [7]: 100%

% of inhibition [8]: 20%
SMILES: CCc1ccccc1C(=O)Nc1n[nH]c2c(C)c(F)c(C3C(C#N)=C(C)N(C)C(C)=C3C#N)cc12 [BAY-3827]

SMILES: N#Cc1cccc(-c2c[nH]c3ncnc(N4CCOCC4)c23)c1
% of inhibition [9]: 63%
% of control [10]: 98%

SMILES: CNC(=O)Nc1ccc(-c2nc(N3CC4CCC(C3)O4)c3cnn(C4CCC5(CC4)OCCO5)c3n2)cc1
% of control [11]: 100%
% of control [12]: 90%

SMILES: O=C(NOC[C@H](O)CO)c1ccc(F)c(F)c1Nc1ccc(I)cc1F
% of control [13]: 100%
